Data: ChEMBL document CHEMBL3525983, “Pharmacokinetics, metabolism, and disposition of rivoglitazone, a novel peroxisome proliferator-activated receptor γ agonist, in rats and monkeys” (Drug Metab Dispos, 2011)

Tests used:
[1] = tested on: Rhesus monkey; experiment: Drug level in monkey plasma treated with [14C]rivoglitazone assessed as ratio of molar basis AUC (0 to t) at 1 mg/kg, po administered via gavage by LC-MS/MS analysis; type: ADME, organism-based, Macaca mulatta; design: dose 1 mg/kg, dosed compound name [14C]Rivoglitazone, route oral; details: in vivo
[2] = Retention time of the compound by LC-MS/MS analysis; type: physicochemical; design: dosed compound name [14C]Rivoglitazone
[3] = Drug excretion in monkey urine/feces treated with [14C]rivoglitazone at 1 mg/kg, po administered via gavage measured during 0 to 72 hrs by radio-HPLC analysis; type: ADME, organism-based, Macaca mulatta; design: dose 1 mg/kg, dosed compound name [14C]Rivoglitazone, route oral; details: rhesus monkey, in vivo
[4] = Drug excretion in monkey feces treated with [14C]rivoglitazone at 1 mg/kg, po administered via gavage measured during 0 to 72 hrs by radio-HPLC analysis; type: ADME, organism-based, Macaca mulatta; design: dose 1 mg/kg, dosed compound name [14C]Rivoglitazone, route oral; details: rhesus monkey, in vivo
[5] = tested on: Rattus norvegicus; experiment: Drug level in F344/DuCrlCrlj rat plasma treated with [14C]rivoglitazone assessed as ratio of molar basis AUC (0 to t) at 1 mg/kg, po administered via gavage by LC-MS/MS analysis; type: ADME, organism-based; design: dose 1 mg/kg, dosed compound name [14C]Rivoglitazone, route oral; details: in vivo
[6] = Drug excretion in F344/DuCrlCrlj rat urine/feces treated with [14C]rivoglitazone at 1 mg/kg, po administered via gavage measured during 0 to 48 hrs by radio-HPLC analysis; type: ADME, organism-based; design: dose 1 mg/kg, dosed compound name [14C]Rivoglitazone, route oral; details: in vivo
[7] = Drug excretion in F344/DuCrlCrlj rat feces treated with [14C]rivoglitazone at 1 mg/kg, po administered via gavage measured during 0 to 48 hrs by radio-HPLC analysis; type: ADME, organism-based; design: dose 1 mg/kg, dosed compound name [14C]Rivoglitazone, route oral; details: in vivo
[8] = Drug excretion in F344/DuCrlCrlj rat urine/bile treated with [14C]rivoglitazone at 1 mg/kg, po administered via gavage measured during 0 to 48 hrs by radio-HPLC analysis; type: ADME, organism-based; design: dose 1 mg/kg, dosed compound name [14C]Rivoglitazone, route oral; details: in vivo
[9] = Drug excretion in F344/DuCrlCrlj rat urine treated with [14C]rivoglitazone at 1 mg/kg, po administered via gavage measured during 0 to 48 hrs by radio-HPLC analysis; type: ADME, organism-based; design: dose 1 mg/kg, dosed compound name [14C]Rivoglitazone, route oral; details: in vivo
[10] = Drug excretion in F344/DuCrlCrlj rat bile treated with [14C]rivoglitazone at 1 mg/kg, po administered via gavage measured during 0 to 48 hrs by radio-HPLC analysis; type: ADME, organism-based; design: dose 1 mg/kg, dosed compound name [14C]Rivoglitazone, route oral; details: in vivo
[11] = Drug excretion in monkey urine treated with [14C]rivoglitazone at 1 mg/kg, po administered via gavage measured during 0 to 72 hrs by radio-HPLC analysis; type: ADME, organism-based, Macaca mulatta; design: dose 1 mg/kg, dosed compound name [14C]Rivoglitazone, route oral; details: rhesus monkey, in vivo

Q: With `Cn1c(COc2ccc(CC3SC(=O)NC3=O)cc2)nc2ccc(O)cc21` (configuration not stated) as the molecule, how does the AUCmet/AUCp [1] read?
A: Its AUCmet/AUCp is 1.22%.

Q: And the Retention_time [2]?
A: Its Retention_time is 19 min.

Q: What about the Compound recovery [3] of the same molecule?
A: The Compound recovery was 18%.

Q: And the Compound recovery [4]?
A: Its Compound recovery is 18%.

Q: And the AUCmet/AUCp [5]?
A: The AUCmet/AUCp was 0.72%.

Q: What about the Compound recovery [6] of the same molecule?
A: Its Compound recovery is 25.6%.

Q: And the Compound recovery [7]?
A: The Compound recovery was 25.6%.

Q: What about the Compound recovery [8] of the same molecule?
A: Its Compound recovery is “metabolite_not_detected”.

Q: With `COc1ccc2nc(COc3ccc(CC(C(N)=O)S(C)(=O)=O)cc3)n(C)c2c1` (configuration not stated) as the molecule, how does the Compound recovery [9] read?
A: The Compound recovery was 1%.

Q: What about the AUCmet/AUCp [1] of the same molecule?
A: Its AUCmet/AUCp is 0.08%.

Q: And the Retention_time [2]?
A: The Retention_time was 18.1 min.

Q: What about the Compound recovery [3] of the same molecule?
A: Its Compound recovery is 1.3%.

Q: And the AUCmet/AUCp [5]?
A: The AUCmet/AUCp was 0.02%.

Q: What about the Compound recovery [6] of the same molecule?
A: The Compound recovery was 1%.

Q: And the Compound recovery [10]?
A: The Compound recovery was 1%.

Q: What about the Compound recovery [11] of the same molecule?
A: The Compound recovery was 1.3%.

Q: And the Compound recovery [7]?
A: The Compound recovery was “metabolite_not_detected”.

Q: What about the Compound recovery [8] of the same molecule?
A: The Compound recovery was 2%.

Q: Which results are given for `COc1ccc2nc(COc3ccc(CC4(O)SC(=O)NC4=O)cc3)n(C)c2c1` (configuration not stated)?
A: AUCmet/AUCp [1]: 0.02%; Retention_time [2]: 21.3 min; Compound recovery [3]: 2.1%; Compound recovery [4]: 1.7%; AUCmet/AUCp [5]: 0.03%; Compound recovery [11]: 0.4%

Q: Which AUCmet/AUCp [1] does the source give for `COc1ccc2nc(COc3ccc(CC(SC)C(=O)O)cc3)n(C)c2c1` (configuration not stated) here?
A: The AUCmet/AUCp was 0.25%.

Q: What about the Retention_time [2] of the same molecule?
A: The Retention_time was 24.1 min.

Q: What about the Compound recovery [3] of the same molecule?
A: The Compound recovery was 0.8%.

Q: And the Compound recovery [4]?
A: Its Compound recovery is 0.8%.

Q: What about the AUCmet/AUCp [5] of the same molecule?
A: The AUCmet/AUCp was 0.01%.

Q: And the Compound recovery [6]?
A: Its Compound recovery is 3%.

Q: What about the Compound recovery [7] of the same molecule?
A: Its Compound recovery is 3%.

Q: And the Compound recovery [8]?
A: The Compound recovery was “metabolite_not_detected”.

Q: For `COc1ccc2nc(COc3ccc(CC(SC)C(N)=O)cc3)n(C)c2c1` (configuration not stated), which AUCmet/AUCp [1] is on record?
A: Its AUCmet/AUCp is 0.05%.

Q: And the Retention_time [2]?
A: The Retention_time was 20.9 min.

Q: And the AUCmet/AUCp [5]?
A: Its AUCmet/AUCp is 0.01%.

Q: What does the source list for `COc1ccc2nc(COc3ccc(CC(SSCC(N)C(=O)O)C(=O)O)cc3)n(C)c2c1` (configuration not stated)?
A: AUCmet/AUCp [1]: 0.03%; Retention_time [2]: 16.8 min

Q: With `Cn1c(COc2ccc(CC(C(N)=O)S(C)(=O)=O)cc2)nc2ccc(OS(=O)(=O)O)cc21` (configuration not stated) as the molecule, how does the Retention_time [2] read?
A: Its Retention_time is 13.8 min.

Q: And the Compound recovery [10]?
A: Its Compound recovery is 1.3%.

Q: And the Compound recovery [7]?
A: The Compound recovery was “metabolite_not_detected”.

Q: What about the Compound recovery [8] of the same molecule?
A: Its Compound recovery is 1.3%.

Q: What does the source list for `Cn1c(COc2ccc(CC3SC(=O)NC3=O)cc2)nc2ccc(O[C@@H]3O[C@H](C(=O)O)[C@@H](O)[C@H](O)[C@H]3O)cc21` (some centres not stated)?
A: Retention_time [2]: 15.1 min; Compound recovery [3]: 2.6%; Compound recovery [10]: 1.5%; Compound recovery [11]: 2.6%; Compound recovery [7]: metabolite_not_detected; Compound recovery [8]: 1.5%

Q: Which AUCmet/AUCp [1] does the source give for `COc1ccc2nc(COc3ccc(CC(SC(=O)N[C@@H]4O[C@H](C(=O)O)[C@@H](O)[C@H](O)[C@H]4O)C(=O)O)cc3)n(C)c2c1` (some centres not stated) here?
A: The AUCmet/AUCp was 1.53%.

Q: What about the Retention_time [2] of the same molecule?
A: Its Retention_time is 17.2 min.

Q: And the Compound recovery [3]?
A: The Compound recovery was 6.6%.

Q: And the Compound recovery [4]?
A: The Compound recovery was 6.6%.

Q: With `O=C1NC(=O)C(Cc2ccc(OCc3nc4ccc(O)cc4[nH]3)cc2)S1` (configuration not stated) as the molecule, how does the AUCmet/AUCp [1] read?
A: Its AUCmet/AUCp is 0.28%.

Q: What about the Retention_time [2] of the same molecule?
A: The Retention_time was 17.8 min.

Q: And the Compound recovery [3]?
A: The Compound recovery was 3.8%.

Q: And the Compound recovery [11]?
A: The Compound recovery was 3.8%.

Q: Which AUCmet/AUCp [1] does the source give for `COc1ccc2nc(COc3ccc(CC4SC(=O)NC4=O)cc3)[nH]c2c1` (configuration not stated) here?
A: The AUCmet/AUCp was 7.01%.

Q: What about the Retention_time [2] of the same molecule?
A: Its Retention_time is 21.5 min.

Q: What about the AUCmet/AUCp [5] of the same molecule?
A: Its AUCmet/AUCp is 0.02%.

Q: For `COc1ccc2nc(COc3ccc(CC(C(N)=O)[S+](C)[O-])cc3)n(C)c2c1` (configuration not stated), which Compound recovery [9] is on record?
A: Its Compound recovery is 3.9%.

Q: What about the AUCmet/AUCp [1] of the same molecule?
A: Its AUCmet/AUCp is 0.11%.

Q: What about the Retention_time [2] of the same molecule?
A: The Retention_time was 16.1 min.

Q: What about the AUCmet/AUCp [5] of the same molecule?
A: Its AUCmet/AUCp is 0.08%.

Q: And the Compound recovery [6]?
A: The Compound recovery was 3.9%.

Q: What about the Compound recovery [10] of the same molecule?
A: Its Compound recovery is 0.6%.

Q: And the Compound recovery [7]?
A: Its Compound recovery is “metabolite_not_detected”.

Q: And the Compound recovery [8]?
A: Its Compound recovery is 4.5%.

Q: For `COc1ccc2nc(COc3ccc(CC4SC(=O)N([C@@H]5O[C@H](C(=O)O)[C@@H](O)[C@H](O)[C@H]5O)C4=O)cc3)n(C)c2c1` (some centres not stated), which AUCmet/AUCp [1] is on record?
A: Its AUCmet/AUCp is 2.15%.

Q: What about the Retention_time [2] of the same molecule?
A: The Retention_time was 19.8 min.

Q: What about the Compound recovery [3] of the same molecule?
A: The Compound recovery was 1.4%.

Q: What about the Compound recovery [10] of the same molecule?
A: Its Compound recovery is 1%.

Q: What about the Compound recovery [11] of the same molecule?
A: The Compound recovery was 1.4%.

Q: What about the Compound recovery [7] of the same molecule?
A: Its Compound recovery is “metabolite_not_detected”.

Q: What about the Compound recovery [8] of the same molecule?
A: Its Compound recovery is 1%.

Q: Which Retention_time [2] does the source give for `Cn1c(COc2ccc(CC(SC(=O)N[C@@H]3O[C@H](C(=O)O)[C@@H](O)[C@H](O)[C@H]3O)C(=O)O)cc2)nc2ccc(O)cc21` (some centres not stated) here?
A: The Retention_time was 13.9 min.

Q: What does the source list for `CSC(Cc1ccc(OCc2nc3ccc(O)cc3n2C)cc1)C(N)=O` (configuration not stated)?
A: Retention_time [2]: 16.9 min; Compound recovery [3]: 2.9%; Compound recovery [4]: 2.9%; Compound recovery [6]: 8.7%; Compound recovery [7]: 8.7%; Compound recovery [8]: metabolite_not_detected

Q: Which Retention_time [2] does the source give for `Cn1c(COc2ccc(CC(C(N)=O)[S+](C)[O-])cc2)nc2ccc(OS(=O)(=O)O)cc21` (configuration not stated) here?
A: The Retention_time was 9.9 min.

Q: And the Compound recovery [10]?
A: Its Compound recovery is 3.8%.

Q: And the Compound recovery [7]?
A: Its Compound recovery is “metabolite_not_detected”.

Q: What about the Compound recovery [8] of the same molecule?
A: The Compound recovery was 3.8%.

Q: What does the source list for `CSC(Cc1ccc(OCc2nc3ccc(O[C@@H]4O[C@H](C(=O)O)[C@@H](O)[C@H](O)[C@H]4O)cc3n2C)cc1)C(N)=O` (some centres not stated)?
A: Compound recovery [9]: 0.7%; Retention_time [2]: 12.9 min; Compound recovery [3]: 1.2%; Compound recovery [6]: 0.7%; Compound recovery [10]: 2.8%; Compound recovery [11]: 1.2%; Compound recovery [7]: metabolite_not_detected; Compound recovery [8]: 3.5%
